One assay concerns the target Cathepsin S (Homo sapiens, UniProt P25774). Description: Cathepsin S inhibition assay (fluorogenic peptide substrate). The format is biochemical. To be noted: Table II, compounds of Formula I; read-out: Ki Cat. S. The gist of the method: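 Ki values come from nonlinear fitting of inhibited hydrolysis rates, taking free and total inhibitor concentrations as equal. Rates measured as rising fluorescence at 380/450 nm after reaction start with 50 μM final acetyl-HPVK-aminocarbamoylcoumarin.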

For another assay, the target named is T1, Cathepsin K (Homo sapiens, UniProt P43235).
T1 sequence (P43235 115-329): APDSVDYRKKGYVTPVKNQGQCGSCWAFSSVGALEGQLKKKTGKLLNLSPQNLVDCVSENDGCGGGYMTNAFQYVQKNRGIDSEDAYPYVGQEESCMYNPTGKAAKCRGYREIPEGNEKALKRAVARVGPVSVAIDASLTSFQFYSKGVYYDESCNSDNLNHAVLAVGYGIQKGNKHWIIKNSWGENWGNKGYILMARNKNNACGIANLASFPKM
Kind of assay: Cathepsin K inhibition assay (fluorogenic peptide substrate); selectivity ratio vs cathepsin S. The format is biochemical. Particulars: ratio of cathepsin K inhibition constant to cathepsin S inhibition constant; Table II. The gist of the method:
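Inhibition constants for competitive inhibitors come from apparent values fitted to enzyme progress curves. Substrate, acetyl-Lys-His-Pro-Lys-aminocarbamoylcoumarin (40 μM final), starts the reaction; fluorescence rise read at 380 nm excitation, 450 nm emission. Selectivity ratio: other cathepsin constant over cathepsin S constant.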

The values that follow come from patent publication US7109243B2 (IRM LLC, priority 2003, dated 2006).

Cathepsin S, sequence (P25774 115-331, species assumed): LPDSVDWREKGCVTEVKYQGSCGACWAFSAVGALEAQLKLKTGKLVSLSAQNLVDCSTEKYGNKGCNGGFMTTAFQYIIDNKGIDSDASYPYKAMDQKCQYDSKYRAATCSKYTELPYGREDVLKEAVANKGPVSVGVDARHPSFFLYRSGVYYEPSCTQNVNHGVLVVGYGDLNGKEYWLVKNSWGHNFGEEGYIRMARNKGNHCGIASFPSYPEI

For `COc1ccc(NCCNC(=O)[C@H](CCC2CCCCC2)NC(=O)c2sc(N)nc2C)cc1` [Compound 133, (S)-2-Amino-4-methyl-thiazole-5-carboxylic acid {3-cyclohexyl-1-[2-(4-methoxy-phenylamino)-ethylcarbamoyl]-propyl}-amide], the Ki on Cathepsin S is under 1000 nM. The “Selectivity for Cat. S over Cat. K” value on Cathepsin K is on record as “++ (++, >100)”.

On to `COc1ccc(NCCNC(=O)[C@H](CCC2CCCCC2)NC(=O)c2cc3cc(Cl)ccc3o2)cc1` [Compound 134, (S)-5-Chloro-benzofuran-2-carboxylic acid {3-cyclohexyl-1-[2-(4-methoxy-phenylamino)-ethylcarbamoyl]-propyl}-amide], for which the Ki on Cathepsin S is under 1000 nM. The “Selectivity for Cat. S over Cat. K” value at Cathepsin K is listed as “++ (++, >100)”.

For `CC[C@@H](C(=O)N[C@@H](CC1CCCCC1)C(=O)NCCNc1ccc(OC(F)(F)F)cc1)c1ccccc1` [Compound 135, N-{2-cyclohexyl-1-(S)-[2-(4-trifluoromethoxy-phenylamino)-ethylcarbamoyl]-ethyl}-2-(R)-phenyl-butyramide], the Ki on Cathepsin S is under 100 nM. For the same molecule, the “Selectivity for Cat. S over Cat. K” value at Cathepsin K is given as “+++ (+++, >1000)”.

`COc1ccc(NCCNC(=O)[C@H](CCC2CCCCC2)NC(=O)c2ccc(-c3cccc(C(F)(F)F)c3)o2)cc1` [Compound 136, (S)-5-(3-Trifluoromethyl-phenyl)-furan-2-carboxylic acid {3-cyclohexyl-1-[2-(4-methoxy-phenylamino)-ethylcarbamoyl]-propyl}-amide]: the Ki on Cathepsin S is under 1000 nM. Besides, at Cathepsin K, the “Selectivity for Cat. S over Cat. K” value is listed as “++ (++, >100)”.

With `COc1ccc(NCCNC(=O)[C@H](CCC2CCCCC2)NC(=O)c2ccc3ncsc3c2)cc1` [Compound 137, (S)-Benzothiazole-6-carboxylic acid {3-cyclohexyl-1-[2-(4-methoxy-phenylamino)-ethylcarbamoyl]-propyl}-amide], the Ki at Cathepsin S was under 100 nM. In addition, the “Selectivity for Cat. S over Cat. K” value at Cathepsin K is reported as “+++ (+++, >1000)”.

`COc1ccc(NCCNC(=O)[C@H](CCC2CCCCC2)NC(=O)c2cccc(OC(F)(F)F)c2)cc1` [Compound 138, (S)-N-{3-Cyclohexyl-1-[2-(4-methoxy-phenylamino)-ethylcarbamoyl]-propyl}-3-trifluoromethoxy-benzamide]: the Ki on Cathepsin S is under 100 nM. Moreover, the “Selectivity for Cat. S over Cat. K” value on Cathepsin K was “+++ (+++, >1000)”.

Regarding `COc1ccc(NCCNC(=O)[C@H](CCC2CCCCC2)NC(=O)c2cccc(C#N)c2)cc1` [Compound 139, (S)-3-Cyano-N-{3-cyclohexyl-1-[2-(4-methoxy-phenylamino)-ethylcarbamoyl]-propyl}-benzamide], the Ki at Cathepsin S is under 100 nM. Further, the “Selectivity for Cat. S over Cat. K” value at Cathepsin K is “+++ (+++, >1000)”.

`COc1ccc(NCCNC(=O)[C@H](CCC2CCCCC2)NC(=O)c2ccc(C#N)cc2)cc1` [Compound 140, (S)-4-Cyano-N-{3-cyclohexyl-1-[2-(4-methoxy-phenylamino)-ethylcarbamoyl]-propyl}-benzamide]: on Cathepsin S, the Ki was under 100 nM. The “Selectivity for Cat. S over Cat. K” value at Cathepsin K was “+++ (+++, >1000)”.

On to `O=C(N[C@@H](CC1CCCCC1)C(=O)NCCNc1ccc(OC(F)(F)F)cc1)c1ccc(Oc2ccccc2)cc1` [Compound 141, N-{2-cyclohexyl-1-(S)-[2-(4-trifluoromethoxy-phenylamino)-ethylcarbamoyl]-ethyl}-4-phenoxy-benzamide], for which the Ki at Cathepsin S was under 100 nM. Further, the “Selectivity for Cat. S over Cat. K” value on Cathepsin K is reported as “+ (+, >10)”.

As to `COc1ccc(NCCNC(=O)[C@H](CCC2CCCCC2)NC(=O)c2cccc(-c3csc(C)n3)c2)cc1` [Compound 142, (S)-N-{3-Cyclohexyl-1-[2-(4-methoxy-phenylamino)-ethylcarbamoyl]-propyl}-3-(2-methyl-thiazol-4-yl)-benzamide], at Cathepsin S, the Ki was under 100 nM. At Cathepsin K, the “Selectivity for Cat. S over Cat. K” value was “+++ (+++, >1000)”.

As to `COc1ccc(NCCNC(=O)[C@H](CCC2CCCCC2)NC(=O)c2ccc(-n3cncn3)cc2)cc1` [Compound 143, (S)-N-{3-Cyclohexyl-1-[2-(4-methoxy-phenylamino)-ethylcarbamoyl]-propyl}-4-[1,2,4]triazol-1-yl-benzamide], the Ki on Cathepsin S was under 1000 nM. Also, the “Selectivity for Cat. S over Cat. K” value at Cathepsin K is on record as “++ (++, >100)”.

For the molecule `COc1ccc(NCCNC(=O)[C@H](CCC2CCCCC2)NC(=O)c2cccc(-c3ccccc3)c2)cc1` [Compound 144, (S)-Biphenyl-3-carboxylic acid {3-cyclohexyl-1-[2-(4-methoxy-phenylamino)-ethylcarbamoyl]-propyl}-amide], the inhibition constant (Ki) on Cathepsin S was under 1000 nM. The “Selectivity for Cat. S over Cat. K” value at Cathepsin K is on record as “+++ (+++, >1000)”.

Consider `COc1ccc(NCCNC(=O)[C@H](CC2CCCCC2)NC(=O)c2ccccc2F)cc1` [Compound 145, (S)-N-{2-Cyclohexyl-1-[2-(4-methoxy-phenylamino)-ethylcarbamoyl]-ethyl}-2-fluoro-benzamide], for which the Ki at Cathepsin S was under 100 nM. At Cathepsin K, the “Selectivity for Cat. S over Cat. K” value is reported as “+++ (+++, >1000)”.

Take `COc1ccc(NCCNC(=O)[C@H](CC2CCCCC2)NC(=O)c2ccc(F)c(F)c2)cc1` [Compound 146, (S)-N-{2-Cyclohexyl-1-[2-(4-methoxy-phenylamino)-ethylcarbamoyl]-ethyl}-3,4-difluoro-benzamide]: the Ki on Cathepsin S is under 100 nM. In addition, at Cathepsin K, the “Selectivity for Cat. S over Cat. K” value is listed as “+++ (+++, >1000)”.

In the case of `COc1ccc(NCCNC(=O)[C@H](CC2CCCCC2)NC(=O)c2cccc(F)c2C)cc1` [Compound 147, (S)-N-{2-Cyclohexyl-1-[2-(4-methoxy-phenylamino)-ethylcarbamoyl]-ethyl}-3-fluoro-2-methyl-benzamide], at Cathepsin S, the Ki is under 100 nM. For the same molecule, at Cathepsin K, the “Selectivity for Cat. S over Cat. K” value is on record as “+++ (+++, >1000)”.

Consider `COc1ccc(NCCNC(=O)[C@H](CC2CCCCC2)NC(=O)c2cc(C)ccc2Cl)cc1` [Compound 148, (S)-2-Chloro-N-{2-cyclohexyl-1-[2-(4-methoxy-phenylamino)-ethylcarbamoyl]-ethyl}-5-methyl-benzamide], for which the Ki at Cathepsin S was under 100 nM. Further, on Cathepsin K, the “Selectivity for Cat. S over Cat. K” value is given as “+++ (+++, >1000)”.

For `COc1ccc(NCCNC(=O)[C@H](CC2CCCCC2)NC(=O)c2ccc(F)c(C(F)(F)F)c2)cc1` [Compound 149, (S)-N-{2-Cyclohexyl-1-[2-(4-methoxy-phenylamino)-ethylcarbamoyl]-ethyl}-4-fluoro-3-trifluoromethyl-benzamide], at Cathepsin S, the Ki was under 100 nM. The “Selectivity for Cat. S over Cat. K” value at Cathepsin K is “+++ (+++, >1000)”.

Turning to `CCCc1ccc(C(=O)N[C@@H](CC2CCCCC2)C(=O)NCCNc2ccc(OC)cc2)cc1` [Compound 151, (S)-N-{2-Cyclohexyl-1-[2-(4-methoxy-phenylamino)-ethylcarbamoyl]-ethyl}-4-propyl-benzamide], the Ki on Cathepsin S was under 100 nM. In addition, the “Selectivity for Cat. S over Cat. K” value on Cathepsin K was “+ (+, >10)”.

In the case of `O=C(Cc1ccc(F)cc1)N[C@@H](CC1CCCCC1)C(=O)NCCNc1ccc(F)cc1` [Compound 152, 3-Cyclohexyl-2-(S)-[2-(4-fluoro-phenyl)-acetylamino]-N-[2-(4-fluoro-phenylamino)-ethyl]-propionamide], the Ki on Cathepsin S was under 100 nM. In addition, the “Selectivity for Cat. S over Cat. K” value on Cathepsin K is reported as “++ (++, >100)”.

Turning to `COc1ccc(NCCNC(=O)[C@H](CC2CCCCC2)NC(=O)c2ccc(OC)cc2)cc1` [Compound 153, (S)-N-{2-Cyclohexyl-1-[2-(4-methoxy-phenylamino)-ethylcarbamoyl]-ethyl}-4-methoxy-benzamide], the Ki at Cathepsin S was under 100 nM. Also, the “Selectivity for Cat. S over Cat. K” value on Cathepsin K was “+ (+, >10)”.

As to `COc1ccc(NCCNC(=O)[C@H](CC2CCCCC2)NC(=O)c2cc(C(F)(F)F)ccc2F)cc1` [Compound 154, (S)-N-{2-Cyclohexyl-1-[2-(4-methoxy-phenylamino)-ethylcarbamoyl]-ethyl}-2-fluoro-5-trifluoromethyl-benzamide], the Ki on Cathepsin S was under 100 nM. Besides, the “Selectivity for Cat. S over Cat. K” value on Cathepsin K is given as “++ (++, >100)”.

Consider `COc1ccc(NCCNC(=O)[C@H](CC2CCCCC2)NC(=O)c2cccc(Cl)c2F)cc1` [Compound 155, (S)-3-Chloro-N-{2-cyclohexyl-1-[2-(4-methoxy-phenylamino)-ethylcarbamoyl]-ethyl}-2-fluoro-benzamide], for which, on Cathepsin S, the Ki is under 100 nM. On Cathepsin K, the “Selectivity for Cat. S over Cat. K” value is “+++ (+++, >1000)”.

With `COc1ccc(NCCNC(=O)[C@H](CC2CCCCC2)NC(=O)c2cc(Cl)ccc2F)cc1` [Compound 156, (S)-5-Chloro-N-{2-cyclohexyl-1-[2-(4-methoxy-phenylamino)-ethylcarbamoyl]-ethyl}-2-fluoro-benzamide], at Cathepsin S, the Ki was under 100 nM. In addition, on Cathepsin K, the “Selectivity for Cat. S over Cat. K” value was “+++ (+++, >1000)”.

With `COc1ccc(NCCNC(=O)[C@H](CC2CCCCC2)NC(=O)c2cc(F)ccc2C)cc1` [Compound 157, (S)-N-{2-Cyclohexyl-1-[2-(4-methoxy-phenylamino)-ethylcarbamoyl]-ethyl}-5-fluoro-2-methyl-benzamide], the Ki at Cathepsin S was under 100 nM. In addition, on Cathepsin K, the “Selectivity for Cat. S over Cat. K” value is “+++ (+++, >1000)”.

Turning to `COc1ccc(NCCNC(=O)[C@H](CC2CCCCC2)NC(=O)C2(c3ccccc3)CC2)cc1` [Compound 158, (S)-1-Phenyl-cyclopropanecarboxylic acid {2-cyclohexyl-1-[2-(4-methoxy-phenylamino)-ethylcarbamoyl]-ethyl}-amide], the Ki on Cathepsin S was under 100 nM. For the same molecule, the “Selectivity for Cat. S over Cat. K” value on Cathepsin K is given as “++ (++, >100)”.
